From patent publication US10479795B2 (Incyte Corporation, priority 2016, dated 2019)
Counter-ions that a name gives are not always drawn. Like-named read-outs stand apart in the source and are kept apart here.

Key:
[1] = molecular target: PI3Kδ (p110δ/p85α) Recombinant Human Protein (Homo sapiens (Human), UniProt O00329); assay: PI3Kδ Scintillation Proximity Assay; format: biochemical
Method in brief: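 IC50 was fitted to percent solvent-control activity from SPA scintillation counts after WGA bead capture of 33P-labelled lipid product. Reaction: 120 min, room temperature, 3.4 nM p110δ/p85α, 20 μM PIP2, 2 μM ATP with tracer, MOPS pH 6.7 buffer containing MgCl2, DTT, CHAPS, 2% DMSO.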

[2] = molecular target: PI3Kγ (p110γ) Recombinant Human Protein (Homo sapiens (Human), UniProt P48736); assay: PI3K-γ Scintillation Proximity Assay; format: biochemical; conditions: read-out: PI3Kγ IC50
Method in brief: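 Radiometric SPA readout: […] bound to WGA beads after overnight shaking, IC50 derived from % activity of DMSO control. Reaction used human p110γ, 2 μM ATP, 20 μM PIP2, pH 6.7 MOPS buffer with MgCl2, DTT, CHAPS, 2% DMSO, room temperature.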

[3] = test system: Phosphorylated Ribosomal Protein S6 (RPS6); assay: THP-1 RPS6 ELISA Assay; format: cell-based, Human; conditions: THP-1 cells, read-out: PI3Kγ_THP1_RPS6_ELISA IC50
Method in brief: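 IC50 values come from a curve of percent inhibition against log compound concentration, using phospho-RPS6 ELISA (450 nm) on THP-1 lysates. Cells were serum-starved overnight, exposed to compound for 2 h at 37 °C, then challenged 15 min with 10 nM MCP-1.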

Sequence of PI3Kγ (p110γ) Recombinant Human Protein (P48736 whole entry): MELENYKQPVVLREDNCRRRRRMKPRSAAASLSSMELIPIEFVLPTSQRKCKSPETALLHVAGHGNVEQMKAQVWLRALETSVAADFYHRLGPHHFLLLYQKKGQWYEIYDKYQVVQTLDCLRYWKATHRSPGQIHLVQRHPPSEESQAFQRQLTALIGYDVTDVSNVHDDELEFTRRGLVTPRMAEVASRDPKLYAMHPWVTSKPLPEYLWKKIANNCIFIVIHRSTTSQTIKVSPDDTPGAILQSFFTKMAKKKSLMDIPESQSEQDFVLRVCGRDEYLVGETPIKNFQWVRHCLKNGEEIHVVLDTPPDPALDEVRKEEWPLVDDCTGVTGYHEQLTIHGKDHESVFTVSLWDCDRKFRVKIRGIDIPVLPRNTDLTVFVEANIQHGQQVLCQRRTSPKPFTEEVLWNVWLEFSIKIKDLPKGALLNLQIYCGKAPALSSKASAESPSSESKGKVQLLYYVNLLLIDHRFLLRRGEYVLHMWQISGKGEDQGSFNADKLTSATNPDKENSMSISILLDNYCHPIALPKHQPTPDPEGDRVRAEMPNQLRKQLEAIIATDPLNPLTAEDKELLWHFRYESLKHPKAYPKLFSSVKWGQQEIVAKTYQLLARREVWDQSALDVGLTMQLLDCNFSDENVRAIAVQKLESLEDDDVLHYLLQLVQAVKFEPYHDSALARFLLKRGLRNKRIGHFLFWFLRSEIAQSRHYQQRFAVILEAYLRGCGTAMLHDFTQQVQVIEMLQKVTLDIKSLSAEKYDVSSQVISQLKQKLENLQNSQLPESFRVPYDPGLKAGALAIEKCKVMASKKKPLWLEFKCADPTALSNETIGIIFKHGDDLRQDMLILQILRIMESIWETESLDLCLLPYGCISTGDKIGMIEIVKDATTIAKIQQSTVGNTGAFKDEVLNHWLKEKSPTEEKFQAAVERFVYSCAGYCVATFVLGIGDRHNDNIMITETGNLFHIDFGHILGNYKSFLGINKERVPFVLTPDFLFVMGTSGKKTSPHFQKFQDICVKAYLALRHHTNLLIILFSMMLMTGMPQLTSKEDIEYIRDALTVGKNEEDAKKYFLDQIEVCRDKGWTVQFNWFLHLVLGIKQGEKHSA
Sequence of PI3Kδ (p110δ/p85α) Recombinant Human Protein (O00329 whole entry): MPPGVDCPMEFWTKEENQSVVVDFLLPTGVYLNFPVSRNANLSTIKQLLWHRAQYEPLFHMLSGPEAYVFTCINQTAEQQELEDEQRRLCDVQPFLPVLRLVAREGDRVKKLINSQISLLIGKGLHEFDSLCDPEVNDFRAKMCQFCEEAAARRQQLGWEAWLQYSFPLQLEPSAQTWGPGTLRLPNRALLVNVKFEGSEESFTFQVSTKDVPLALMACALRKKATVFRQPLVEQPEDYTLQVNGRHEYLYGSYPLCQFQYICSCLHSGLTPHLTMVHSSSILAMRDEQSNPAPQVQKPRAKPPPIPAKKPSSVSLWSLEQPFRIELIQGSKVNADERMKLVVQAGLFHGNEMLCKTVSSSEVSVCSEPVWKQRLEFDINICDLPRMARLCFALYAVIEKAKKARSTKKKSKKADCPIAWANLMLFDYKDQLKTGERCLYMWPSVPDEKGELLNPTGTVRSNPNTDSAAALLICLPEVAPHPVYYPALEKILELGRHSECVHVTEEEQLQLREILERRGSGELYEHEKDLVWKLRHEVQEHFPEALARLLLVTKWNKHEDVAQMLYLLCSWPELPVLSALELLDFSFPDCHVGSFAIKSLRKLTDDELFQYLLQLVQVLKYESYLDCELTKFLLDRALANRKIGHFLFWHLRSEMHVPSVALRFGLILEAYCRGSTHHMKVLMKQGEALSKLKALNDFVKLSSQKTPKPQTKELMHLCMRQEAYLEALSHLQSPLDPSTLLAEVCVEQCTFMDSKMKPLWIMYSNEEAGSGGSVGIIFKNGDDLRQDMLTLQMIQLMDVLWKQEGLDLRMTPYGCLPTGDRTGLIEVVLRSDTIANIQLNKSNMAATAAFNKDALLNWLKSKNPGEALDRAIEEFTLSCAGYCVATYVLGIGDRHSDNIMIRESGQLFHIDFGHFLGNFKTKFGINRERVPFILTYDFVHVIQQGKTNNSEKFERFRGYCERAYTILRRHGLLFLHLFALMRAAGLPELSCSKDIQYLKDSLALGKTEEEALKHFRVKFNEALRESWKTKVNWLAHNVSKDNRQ
Sequence of PI3Kδ (p110δ/p85α) Recombinant Human Protein (P27986 whole entry partner): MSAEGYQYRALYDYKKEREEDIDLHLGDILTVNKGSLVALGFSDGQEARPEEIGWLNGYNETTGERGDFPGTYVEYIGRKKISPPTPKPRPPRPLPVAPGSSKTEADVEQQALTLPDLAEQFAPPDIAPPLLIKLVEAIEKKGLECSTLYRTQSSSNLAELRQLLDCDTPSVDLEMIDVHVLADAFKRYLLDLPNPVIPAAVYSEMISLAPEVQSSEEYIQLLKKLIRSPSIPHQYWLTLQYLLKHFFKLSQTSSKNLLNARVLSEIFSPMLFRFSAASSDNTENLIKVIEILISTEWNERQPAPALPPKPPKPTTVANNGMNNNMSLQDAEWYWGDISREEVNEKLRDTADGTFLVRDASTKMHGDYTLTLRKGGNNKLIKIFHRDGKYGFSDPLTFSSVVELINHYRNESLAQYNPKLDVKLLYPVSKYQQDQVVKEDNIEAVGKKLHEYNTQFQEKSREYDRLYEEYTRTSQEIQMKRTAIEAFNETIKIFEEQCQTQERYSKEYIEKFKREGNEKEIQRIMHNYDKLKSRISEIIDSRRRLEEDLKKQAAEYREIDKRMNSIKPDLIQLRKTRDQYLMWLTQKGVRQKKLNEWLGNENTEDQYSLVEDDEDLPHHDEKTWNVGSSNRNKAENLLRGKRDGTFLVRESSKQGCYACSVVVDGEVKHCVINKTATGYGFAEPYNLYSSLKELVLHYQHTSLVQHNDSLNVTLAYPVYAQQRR

Row | IC50 [1] [nM] | IC50 [2] [nM] | IC50 [3] [nM] | IC50 ([3]; Homo sapiens) [nM] | Compound
1 | 100 to 500 | < 100 | < 100 |  | Cc1ccc(S(=O)(=O)NC23CCC(CO)(C2)C3)cc1-c1cnc2c(N)nc(C(F)(F)F)nn12 [Example 328, 3-(4-Amino-2-(trifluoromethyl)imidazo[1,2-f][1,2,4]triazin-7-yl)-N-(4-(hydroxymethyl)bicyclo[2.1.1]hexan-1-yl)-4-methylbenzenesulfonamide trifluoroacetate salt]
2 | 100 to 500 | < 100 |  | 100 to 500 | CC(=O)Nc1cc(Cl)cn2c(-c3cc(S(=O)(=O)N[C@H]4CC[C@H](O)CC4)ccc3C)cnc12 [Example 5, N-[6-chloro-3-(5-{[(trans-4-hydroxycyclohexyl)amino]sulfonyl}-2-methylphenyl)imidazo[1,2-a]pyridin-8-yl]acetamide]
3 | > 2000 | 100 to 500 |  | > 1000 | Cc1ccc(S(=O)(=O)NCC2(CO)CCOCC2)cc1-c1cnc2c(N)ncnn12 [Example 121, 3-(4-aminoimidazo[2,1-f][1,2,4]triazin-7-yl)-N-{[4-(hydroxymethyl)tetrahydro-2H-pyran-4-yl]methyl}-4-methylbenzenesulfonamide]
4 | < 100 | < 100 |  | 100 to 500 | Cc1ccc(S(=O)(=O)N(C)CCC#N)cc1-c1cnc2c(N)nc(C(F)(F)F)nn12 [Example 344, 3-(4-amino-2-(trifluoromethyl)imidazo[2,1-f][1,2,4]triazin-7-yl)-N-(2-cyanoethyl)-N,4-dimethylbenzenesulfonamide]
5 | 100 to 500 | < 100 |  | 100 to 500 | N#CC12CCC(NS(=O)(=O)c3cccc(-c4cnc5c(N)nc(C(F)(F)F)cn45)c3)(C1)C2 [Example 395, 3-(8-Amino-6-(trifluoromethyl)imidazo[1,2-a]pyrazin-3-yl)-N-(4-cyanobicyclo[2.1.1]hexan-1-yl)benzenesulfonamide trifluoroacetate salt]
6 | 500 to 2000 | < 100 |  | > 1000 | Cc1ccc(S(=O)(=O)NC2CCCCC2O)cc1-c1cnc2c(N)ncnn12 (stereo not drawn) [Example 137, 3-(4-aminoimidazo[2,1-f][1,2,4]triazin-7-yl)-N-(2-hydroxycyclohexyl)-4-methylbenzenesulfonamide]
7 | 100 to 500 | < 100 |  | 100 to 500 | Cc1ccc(S(=O)(=O)N[C@H]2CC[C@H](CO)OC2)cc1-c1cnc2c(N)ncnn12 [Example 62, 3-(4-Aminoimidazo[2,1-f][1,2,4]triazin-7-yl)-N-[(3S,6R)-6-(hydroxymethyl)tetrahydro-2H-pyran-3-yl]-4-methylbenzenesulfonamide]
8 | > 2000 | 100 to 500 |  | > 1000 | Cc1ccc(S(=O)(=O)CCC(F)(F)F)cc1-c1cnc2c(N)ncnn12 [Example 493, 7-(2-Methyl-5-((3,3,3-trifluoropropyl)sulfonyl)phenyl)imidazo[2,1-f][1,2,4]triazin-4-amine trifluoroacetate]
9 | 100 to 500 | < 100 |  | 100 to 500 | Cc1ccc(S(=O)(=O)NC23COC(CO)(C2)C3)cc1-c1cnc2c(N)nc(C(F)(F)F)cn12 [Example 428, 3-(8-amino-6-(trifluoromethyl)imidazo[1,2-a]pyrazin-3-yl)-N-(1-(hydroxymethyl)-2-oxabicyclo[2.1.1]hexan-4-yl)-4-methylbenzenesulfonamide trifluoroacetate salt]
10 | 100 to 500 | < 100 | < 100 |  | Cc1ccc(S(=O)(=O)NCC2(CO)CCOCC2)cc1-c1cnc2c(N)nc(C(F)(F)F)nn12 [Example 334, 3-(4-Amino-2-(trifluoromethyl)imidazo[1,2-f][1,2,4]triazin-7-yl)-N-((4-(hydroxymethyptetrahydro-2H-pyran-4-yl)methyl)-4-methylbenzenesulfonamide trifluoroacetate salt]
11 | 500 to 2000 | < 100 |  | > 1000 | CC(=O)N[C@H]1CC[C@H](NS(=O)(=O)c2ccc(C)c(-c3cnc4c(N)ncnn34)c2)CC1 [Example 74, N-[trans-4-({[3-(4-Aminoimidazo[2,1-f][1,2,4]triazin-7-yl)-4-methylphenyl]sulfonyl}amino)cyclohexyl]acetamide]
12 | < 100 | < 100 |  | 100 to 500 | Cc1cn2c(-c3cc(S(=O)(=O)NC45CCC(CO)(C4)C5)ccc3C)cnc2c(N)n1 [Example 262, 3-(8-Amino-6-methylimidazo[1,2-a]pyrazin-3-yl)-N-(4-(hydroxymethyl)bicyclo[2.1.1]hexan-1-yl)-4-methylbenzenesulfonamide]
13 | 500 to 2000 | < 100 | > 1000 |  | Cc1ccc(S(=O)(=O)N[C@H]2CC[C@@](C)(O)CC2)cc1-c1cnc2c(N)ncnn12 [Example 133, 3-(4-aminoimidazo[2,1-f][1,2,4]triazin-7-yl)-N-((1S,4S)-4-hydroxy-4-methylcyclohexyl)-4-methylbenzenesulfonamide]
14 | < 100 | < 100 |  | < 100 | Cc1ccc(S(=O)(=O)N[C@H]2CC[C@H](O)CC2)cc1-c1cnc2c(N)nc(Br)cn12 [Example 16, 3-(8-Amino-6-bromoimidazo[1,2-a]pyrazin-3-yl)-N-(trans-4-hydroxycyclohexyl)-4-methylbenzenesulfonamide]
15 | 100 to 500 | < 100 |  | > 1000 | Cc1ccc(S(=O)(=O)N2CC3(COC3)C2)cc1-c1cnc2c(N)ncnn12 [Example 143, 7-(5-((2-oxa-6-azaspiro[3.3]heptan-6-yl)sulfonyl)-2-methylphenyl)imidazo[2,1-f][1,2,4]triazin-4-amine]
16 | 100 to 500 | < 100 | 500 to 1000 |  | N#CC12CCC(NS(=O)(=O)c3cc(-c4cnc5c(N)nc(C(F)(F)F)nn45)ccc3F)(C1)C2 [Example 417, 5-(4-Amino-2-(trifluoromethyl)imidazo[1,2-f][1,2,4]triazin-7-yl)-N-(4-cyanobicyclo[2.1.1]hexan-1-yl)-2-fluorobenzenesulfonamide trifluoroacetate salt]
17 | 100 to 500 | < 100 | < 100 |  | Cc1ccc(S(=O)(=O)N[C@H]2CC[C@H](CO)OC2)cc1-c1cnc2c(N)nc(C(F)(F)F)cn12 [Example 311]
18 | 100 to 500 | < 100 |  | 100 to 500 | Cc1ccc(S(=O)(=O)NC23CC(Cn4cccn4)(C2)C3)cc1-c1cnc2c(N)nc(C(F)(F)F)cn12 [Example 283, N-(3-((1H-pyrazol-1-yl)methyl)bicyclo[1.1.1]pentan-1-yl)-3-(8-amino-6-(trifluoromethyl)imidazo[1,2-a]pyrazin-3-yl)-4-methylbenzenesulfonamide trifluoroacetate salt]
19 | 500 to 2000 | < 100 | > 1000 |  | Cc1ccc(S(=O)(=O)NC23CC(c4nnn[nH]4)(C2)C3)cc1-c1cnc2c(N)ncnn12 [Example 99, N-(3-(1H-tetrazol-5-yl)bicyclo[1.1.1]pentan-1-yl)-3-(4-aminoimidazo[1,2-f][1,2,4]triazin-7-yl)-4-methylbenzenesulfonamide trifluoroacetate salt]

Row | Compound | IC50 [1] [nM] | IC50 [2] [nM] | IC50 [3] [nM] | IC50 ([3]; Homo sapiens) [nM]
20 | Cc1ccc(S(=O)(=O)NC23CC(N4CCOCC4)(C2)C3)cc1-c1cnc2c(N)nc(C(F)(F)F)nn12 [Example 340, 3-(4-Amino-2-(trifluoromethyl)imidazo[1,2-f][1,2,4]triazin-7-yl)-4-methyl-N-(3-morpholinobicyclo[1.1.1]pentan-1-yl)benzenesulfonamide trifluoroacetate salt] | 100 to 500 | < 100 | 100 to 500 | 
21 | Cc1ccc(S(=O)(=O)NC23CC(C(F)(F)F)(C2)C3)cc1-c1cnc2c(N)ncnn12 [Example 97, 3-(4-Aminoimidazo[1,2-f][1,2,4]triazin-7-yl)-4-methyl-N-(3-(trifluoromethyl)bicyclo[1.1.1]pentan-1-yl)benzenesulfonamide trifluoroacetate salt] | 100 to 500 | < 100 | 100 to 500 | 
22 | Cc1ccc(S(=O)(=O)NC23CC(C)(C2)C3)cc1-c1cnc2c(N)ncnn12 [Example 117, 3-(4-Aminoimidazo[1,2-f][1,2,4]triazin-7-yl)-4-methyl-N-(3-methylbicyclo[1.1.1]pentan-1-yl)benzenesulfonamide] | 500 to 2000 | < 100 | 100 to 500 | 
23 | Cc1ccc(S(=O)(=O)NC23CC(c4cnco4)(C2)C3)cc1-c1cnc2c(N)ncnn12 [Example 111, 3-(4-Aminoimidazo[1,2-f][1,2,4]triazin-7-yl)-4-methyl-N-(3-(oxazol-5-yl)bicyclo[1.1.1]pentan-1-yl)benzenesulfonamide trifluoroacetate salt] | 100 to 500 | < 100 | 100 to 500 | 
24 | Cc1ccc(S(=O)(=O)N[C@H]2CC[C@H](O)CC2)cc1-c1cn2cc(-c3ccccc3F)nc(N)c2n1 [Example 22, 3-[8-Amino-6-(2-fluorophenyl)imidazo[1,2-a]pyrazin-2-yl]-N-(trans-4-hydroxycyclohexyl)-4-methylbenzenesulfonamide] | < 100 | < 100 | < 100 | 
